In patent publication US12077503B2, “Substituted cyclic amides and their use as herbicides” (FMC CORPORATION, priority 2015, dated 2024):

How the values were obtained:
Format in all cases: in vivo
[1] = tested on: ragweed (common ragweed, Ambrosia elatior); assay: Test A preemergence
Method in brief: (§1)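 Seeds sprayed preemergence with a directed soil spray, or plants at 2 to 10 cm height and one- to two-leaf stage sprayed postemergence, with test chemicals in a non-phytotoxic solvent mixture containing surfactant, in loam soil–sand blend. Injury rated visually against untreated controls after about 10 d in greenhouse, 0 (no effect) to 100 (complete control).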

Kochia (Kochia scoparia) [2] = assay: Test A preemergence
Method in brief: as §1

[3] = tested on: ryegrass, Italian (Italian ryegrass, Lolium multiflorum); assay: Test A preemergence
Method in brief: as §1

[4] = tested on: barnyardgrass (Echinochloa crus-galli); assay: Test A preemergence
Method in brief: as §1

[5] = tested on: pigweed (Amaranthus retroflexus); assay: Test A preemergence
[6] = tested on: giant foxtail (Setaria faberii); assay: Test A preemergence
Method in brief: as §1

[7] = tested on: sedge, umbrella (small-flower umbrella sedge, Cyperus difformis); assay: Test B flooded paddy test; conditions: Flood, 0 to 100 scale where 0 is no effect and 100 is complete control, 13 to 15 d
Method in brief: (§2)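 Flooding to 3 cm over soil accompanied treatment, which consisted of adding compound to the standing water around 2-leaf plants; depth was then maintained. Visual assessment versus controls followed at 13 to 15 d (scale 0–100, 0 meaning no effect).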

[8] = tested on: barnyardgrass (Echinochloa crus-galli); assay: Test B flooded paddy test; conditions: Flood, 0 to 100 scale where 0 is no effect and 100 is complete control, 13 to 15 d
Method in brief: as §2

rice (Oryra sativa) = assay: Test B flooded paddy test; conditions: Flood, 0 to 100 scale where 0 is no effect and 100 is complete control, 13 to 15 d
Method in brief: as §2

[9] = tested on: ducksalad (Heteranthera limosa); assay: Test B flooded paddy test; conditions: Flood, 0 to 100 scale where 0 is no effect and 100 is complete control, 13 to 15 d
Method in brief: as §2

[10] = tested on: blackgrass (Alopecurus myosuroides); assay: Test A postemergence; conditions: postemergence
Description: (§3) Seeds of plant species selected from barnyardgrass (Echinochloa crus-galli), Kochia (Kochia scoparia), ragweed (common ragweed, Ambrosia elatior), ryegrass, Italian (Italian ryegrass, Lolium multiflorum), crabgrass, large (Digitaria sanguinalis), giant foxtail (Setaria faberii), green foxtail (Setaria viridis), morningglory (Ipomoea spp.), pigweed (Amaranthus retroflexus), velvetleaf (Abutilon theophrasti), wheat (Triticum aestivum), and corn (Zea mays) were planted into a blend of loam soil and sand and treated preemergence with a directed soil spray using test chemicals formulated in anon-phytotoxic solvent mixture which included a surfactant.
(§4) At the same time, plants selected from these crop and weed species and also blackgrass (Alopecurus myosuroides), and Galium (catchweed bedstraw, Galium aparine) were planted in pots containing the same blend of loam soil and sand and treated with postemergence applications of test chemicals formulated in the same manner. Plants ranged in height from 2 to 10 cm and were in the one- to two-leaf stage for the postemergence treatment. Treated plants and untreated controls were maintained in a greenhouse for approximately 10 d, after which time all treated plants were compared to untreated controls and visually evaluated for injury. Plant response ratings, summarized in Table A, are based on a 0 to 100 scale where 0 is no effect and 100 is complete control. A dash (-) response means no test result.

[11] = tested on: wheat (Triticum aestivum); assay: Test A postemergence; conditions: postemergence
Description: as §3, §4

[12] = tested on: ragweed (common ragweed, Ambrosia elatior); assay: Test A postemergence; conditions: postemergence
Description: as §3, §4

Kochia (Kochia scoparia) [13] = assay: Test A postemergence; conditions: postemergence
Description: as §3, §4

[14] = tested on: ryegrass, Italian (Italian ryegrass, Lolium multiflorum); assay: Test A postemergence; conditions: postemergence
Description: as §3, §4

[15] = tested on: barnyardgrass (Echinochloa crus-galli); assay: Test A postemergence; conditions: postemergence
Description: as §3, §4

[16] = tested on: pigweed (Amaranthus retroflexus); assay: Test A postemergence; conditions: postemergence
Description: as §3, §4

[17] = tested on: giant foxtail (Setaria faberii); assay: Test A postemergence; conditions: postemergence
Description: as §3, §4

corn (Zea mays) = assay: Test A postemergence; conditions: postemergence
Description: as §3, §4

[18] = tested on: Galium (catchweed bedstraw, Galium aparine); assay: Test A postemergence; conditions: postemergence
Description: as §3, §4

[19] = 125 g ai/ha, preemergence, visual rating after approx. 10 d, 0 to 100 scale where 0 is no effect and 100 is complete control
[20] = 500 g ai/ha, preemergence, 0 to 100 scale, 0 = no effect, 100 = complete control
[21] = 125 g ai/ha, visual injury after approximately 10 d, 0 to 100 scale (0 no effect, 100 complete control)
[22] = 500 g ai/ha, visual injury, 0 to 100 scale (0 no effect, 100 complete control), approx. 10 d
[23] = 125 g ai/ha, preemergence, 0 to 100 scale (0 no effect, 100 complete control)
[24] = Preemergence, 500 g ai/ha, visual injury approx. 10 d
[25] = 125 g ai/ha, visual injury rating on 0 to 100 scale (0 no effect, 100 complete control), approx. 10 d
[26] = 500 g ai/ha, 0 to 100 scale, 0 no effect, 100 complete control
[27] = 125 g ai/ha, Preemergence, visual injury after approximately 10 d, 0 to 100 scale where 0 is no effect and 100 is complete control
[28] = 125 g ai/ha, visual rating after approx. 10 d, 0 to 100 scale (0 no effect, 100 complete control)

O=C1NCC(c2cccc(OC(F)(F)C(F)F)c2)C1C(=O)Nc1ccc(F)cc1F (racemic) [Compound 696]
Plant response rating, Ragweed [1, 19]: 0
Plant response rating, Ragweed [1, 20]: 40
Plant response rating, Kochia (Kochia (Kochia scoparia) [2]; [19]): 40
Plant response rating, Kochia (Kochia (Kochia scoparia) [2]; [20]): 60
Plant response rating, Ryegrass, Italian [3, 19]: 30
Plant response rating, Ryegrass, Italian [3, 20]: 60
Plant response rating, Barnyardgrass [4, 19]: 80
Plant response rating, Barnyardgrass [4, 20]: 90
Plant response rating, Pigweed [5, 19]: 20
Plant response rating, Pigweed [5, 20]: 30
Plant response rating, Foxtail, Giant [6, 19]: 90
Plant response rating, Foxtail, Giant [6, 20]: 90
Plant response rating, Sedge, Umbrella ([7]; 500 g ai/ha): 0
Plant response rating, Barnyardgrass ([8]; 500 g ai/ha): 75
Plant response rating, Rice (rice (Oryra sativa); 500 g ai/ha): 35
Plant response rating, Ducksalad ([9]; 500 g ai/ha): 90
Plant response rating, Blackgrass [10, 21]: 30
Plant response rating, Blackgrass [10, 22]: 40
Plant response rating, Wheat [11, 21]: 30
Plant response rating, Wheat [11, 22]: 50
Plant response rating, Ragweed [12, 21]: 20
Plant response rating, Ragweed [12, 22]: 40
Plant response rating, Kochia (Kochia (Kochia scoparia) [13]; [21]): 30
Plant response rating, Kochia (Kochia (Kochia scoparia) [13]; [22]): 40
Plant response rating, Ryegrass, Italian [14, 21]: 30
Plant response rating, Ryegrass, Italian [14, 22]: 40
Plant response rating, Barnyardgrass [15, 21]: 80
Plant response rating, Barnyardgrass [15, 22]: 80
Plant response rating, Pigweed [16, 21]: 30
Plant response rating, Pigweed [16, 22]: 60
Plant response rating, Foxtail, Giant [17, 21]: 80
Plant response rating, Foxtail, Giant [17, 22]: 80
Plant response rating, Corn (corn (Zea mays); [21]): 40
Plant response rating, Corn (corn (Zea mays); [22]): 70
Plant response rating, Galium [18, 21]: 50
Plant response rating, Galium [18, 22]: 70

CCc1ccc(C2CNC(=O)C2C(=O)Nc2ccccc2F)cc1 (stereo not drawn) [Compound 466]
Plant response rating, Ragweed [1, 23]: 0
Ragweed plant response rating (0 to 100 scale, 0 is no effect, 100 is complete control) [1, 24]: 30
Plant response rating, Kochia (Kochia (Kochia scoparia) [2]; [23]): 0
Kochia plant response rating (0 to 100 scale, 0 is no effect, 100 is complete control) (Kochia (Kochia scoparia) [2]; [24]): 0
Plant response rating, Ryegrass, Italian [3, 23]: 0
Ryegrass, Italian plant response rating (0 to 100 scale, 0 is no effect, 100 is complete control) [3, 24]: 20
Plant response rating, Barnyardgrass [4, 23]: 90
Barnyardgrass plant response rating (0 to 100 scale, 0 is no effect, 100 is complete control) [4, 24]: 90
Plant response rating, Pigweed [5, 23]: 0
Pigweed plant response rating (0 to 100 scale, 0 is no effect, 100 is complete control) [5, 24]: 0
Plant response rating, Foxtail, Giant [6, 23]: 70
Foxtail, Giant plant response rating (0 to 100 scale, 0 is no effect, 100 is complete control) [6, 24]: 90
Plant response rating, Sedge, Umbrella ([7]; 250 g ai/ha): 0
Plant response rating, Barnyardgrass ([8]; 250 g ai/ha): 0
Plant response rating, Rice (rice (Oryra sativa); 250 g ai/ha): 0
Plant response rating, Ducksalad ([9]; 250 g ai/ha): 0
Blackgrass plant response rating [10, 25]: 30
Plant response rating, Blackgrass [10, 26]: 60
Wheat plant response rating [11, 25]: 0
Plant response rating, Wheat [11, 26]: 20
Ragweed plant response rating [12, 25]: 0
Plant response rating, Ragweed [12, 26]: 30
Kochia plant response rating (Kochia (Kochia scoparia) [13]; [25]): 0
Plant response rating, Kochia (Kochia (Kochia scoparia) [13]; [26]): 0
Ryegrass, Italian plant response rating [14, 25]: 0
Plant response rating, Ryegrass, Italian [14, 26]: 20
Barnyardgrass plant response rating [15, 25]: 80
Plant response rating, Barnyardgrass [15, 26]: 90
Pigweed plant response rating [16, 25]: 0
Plant response rating, Pigweed [16, 26]: 0
Foxtail, Giant plant response rating [17, 25]: 20
Plant response rating, Foxtail, Giant [17, 26]: 80
Corn plant response rating (corn (Zea mays); [25]): 0
Plant response rating, Corn (corn (Zea mays); [26]): 30
Galium plant response rating [18, 25]: 0
Plant response rating, Galium [18, 26]: 0

O=C1NCC(c2ccc(I)cc2)C1C(=O)Nc1ccccc1Cl (racemic) [Compound 704]
Plant response rating, Ragweed [1, 19]: 0
Plant response rating, Ragweed [1, 20]: 20
Plant response rating, Kochia (Kochia (Kochia scoparia) [2]; [19]): 0
Plant response rating, Kochia (Kochia (Kochia scoparia) [2]; [20]): 30
Plant response rating, Ryegrass, Italian [3, 19]: 0
Plant response rating, Ryegrass, Italian [3, 20]: 20
Plant response rating, Barnyardgrass [4, 19]: 40
Plant response rating, Barnyardgrass [4, 20]: 90
Plant response rating, Pigweed [5, 19]: 0
Plant response rating, Pigweed [5, 20]: 30
Plant response rating, Foxtail, Giant [6, 19]: 90
Plant response rating, Foxtail, Giant [6, 20]: 90
Plant response rating, Sedge, Umbrella ([7]; 500 g ai/ha): 0
Plant response rating, Barnyardgrass ([8]; 500 g ai/ha): 30
Plant response rating, Rice (rice (Oryra sativa); 500 g ai/ha): 0
Plant response rating, Ducksalad ([9]; 500 g ai/ha): 85
Plant response rating, Blackgrass [10, 21]: 0
Plant response rating, Blackgrass [10, 22]: 30
Plant response rating, Wheat [11, 21]: 0
Plant response rating, Wheat [11, 22]: 0
Plant response rating, Ragweed [12, 21]: 0
Plant response rating, Ragweed [12, 22]: 20
Plant response rating, Kochia (Kochia (Kochia scoparia) [13]; [21]): 0
Plant response rating, Kochia (Kochia (Kochia scoparia) [13]; [22]): 20
Plant response rating, Ryegrass, Italian [14, 21]: 0
Plant response rating, Ryegrass, Italian [14, 22]: 20
Plant response rating, Barnyardgrass [15, 21]: 70
Plant response rating, Barnyardgrass [15, 22]: 90
Plant response rating, Pigweed [16, 21]: 0
Plant response rating, Pigweed [16, 22]: 20
Plant response rating, Foxtail, Giant [17, 21]: 70
Plant response rating, Foxtail, Giant [17, 22]: 90
Plant response rating, Corn (corn (Zea mays); [21]): 0
Plant response rating, Corn (corn (Zea mays); [22]): 0
Plant response rating, Galium [18, 21]: 20
Plant response rating, Galium [18, 22]: 40

CN1CC(c2cc(F)cc(F)c2)C(C(=O)Nc2cccc3c2CCC3)C1=O (stereo not drawn) [Compound 659]
Plant response rating, Ragweed [1, 27]: 0
Plant response rating, Ragweed [1, 20]: 0
Plant response rating, Kochia (Kochia (Kochia scoparia) [2]; [27]): 0
Plant response rating, Kochia (Kochia (Kochia scoparia) [2]; [20]): 0
Plant response rating, Ryegrass, Italian [3, 27]: 0
Plant response rating, Ryegrass, Italian [3, 20]: 30
Plant response rating, Barnyardgrass [4, 27]: 90
Plant response rating, Barnyardgrass [4, 20]: 90
Plant response rating, Pigweed [5, 27]: 0
Plant response rating, Pigweed [5, 20]: 0
Plant response rating, Foxtail, Giant [6, 27]: 90
Plant response rating, Foxtail, Giant [6, 20]: 90
Plant response rating, Sedge, Umbrella ([7]; 250 g ai/ha): 0
Plant response rating, Barnyardgrass ([8]; 250 g ai/ha): 60
Plant response rating, Rice (rice (Oryra sativa); 250 g ai/ha): 15
Plant response rating, Ducksalad ([9]; 250 g ai/ha): 80
Plant response rating, Blackgrass [10, 28]: 40
Plant response rating, Blackgrass [10, 22]: 50
Plant response rating, Wheat [11, 28]: 0
Plant response rating, Wheat [11, 22]: 50
Plant response rating, Ragweed [12, 28]: 0
Plant response rating, Ragweed [12, 22]: 0
Plant response rating, Kochia (Kochia (Kochia scoparia) [13]; [28]): 20
Plant response rating, Kochia (Kochia (Kochia scoparia) [13]; [22]): 20
Plant response rating, Ryegrass, Italian [14, 28]: 0
Plant response rating, Ryegrass, Italian [14, 22]: 60
Plant response rating, Barnyardgrass [15, 28]: 70
Plant response rating, Barnyardgrass [15, 22]: 90
Plant response rating, Pigweed [16, 28]: 0
Plant response rating, Pigweed [16, 22]: 0
Plant response rating, Foxtail, Giant [17, 28]: 90
Plant response rating, Foxtail, Giant [17, 22]: 90
Plant response rating, Corn (corn (Zea mays); [28]): 0
Plant response rating, Corn (corn (Zea mays); [22]): 50
Plant response rating, Galium [18, 28]: 0
Plant response rating, Galium [18, 22]: 20
